Laboratory results taken from US8349619B2, “Method for detecting and analyzing protein interactions in-vivo” (Sygnis Bioscience GmbH & Co. KG, priority 2002, dated 2013).

Assays:
PC12 20.4 cells = assay: Cell survival of PC12 20.4 cells after TSA addition (phase contrast images); type: cell-based, rat; details: 3 μM TSA for 12 h
Method: As described in example 4, the PC12 cell line 20.4 expresses all components of the Cre-based reporter system in a completely functional manner. In order to test whether the cell line 20.4 can be utilized for application in the two-hybrid system (see FIG. 2), the known interaction partners described in example 3 were analyzed. Two days after cotransfection of the interaction partners G-ME2bHLH and V-ND, no GFP-positive cells were detectable (see FIG. 7, bottom left). After single transfections of G-ME2bHLH and V-ND, GFP-positive cells were likewise not detectable (see FIG. 7, central figures, left). […] Therefore, the same two-hybrid analysis was carried out in the following experiments, after transient addition of trichostatin A (3 μM, for 12 h, Sigma) (FIG. 8). […] After single transfections of G-ME2bHLH and V-ND, no GFP-positive cells were detectable (see FIG. 8, central figures, left). […] The TSA concentration with the best ratio of cell survival and nearly background-free detection of the interaction of G-ME2bHLH and V-ND, was […] for 12 h. […] Only after cotransfection of the interaction partners GBR2cc and V-GBR1cc, a multiplicity of GFP-positive cells were detected, after single transfection and cotransfection of the cc deletion mutants, GBR2ccDel and V-GBR1ccDel, no GFP-positive cells were microscopically detectable (see FIG. 9, bottom bar).

[1] = tested on: interaction of G-ME2bHLH and V-ND in PC12 20.4 cells; assay: Cre recombinase-based two-hybrid system in PC12 cell line 20.4 with transient addition of TSA, GFP fluorescence; parameters: species or system rat; details: 3 μM TSA for 12 h; two days after transfection of G-ME2bHLH and V-ND; without TSA no GFP-positive cells
Excerpt: FIG. 8 depicts GFP-fluorescence and phase contrast images of the stable PC12 cell line #20.4 two days after transfection with GV, G-ME2bHLH, V-ND and G-ME2bHLH with V-ND, with addition of TSA. […] After cotransfection of the two-hybrid interaction partners V-ND and G-ME2bHLH, GFP fluorescence is likewise detectable under the TSA culturing conditions (bottom left). Under control conditions, transfection of V-ND or G-ME2bHLH, no GFP fluorescence is detectable (center left).
As described in example 4, the PC12 cell line 20.4 expresses all components of the Cre-based reporter system in a completely functional manner. In order to test whether the cell line 20.4 can be utilized for application in the two-hybrid system (see FIG. 2), the known interaction partners described in example 3 were analyzed. Two days after cotransfection of the interaction partners G-ME2bHLH and V-ND, no GFP-positive cells were detectable (see FIG. 7, bottom left). After single transfections of G-ME2bHLH and V-ND, GFP-positive cells were likewise not detectable (see FIG. 7, central figures, left). […] Only after cotransfection of the interaction partners GBR2cc and V-GBR1cc, a multiplicity of GFP-positive cells were detected, after single transfection and cotransfection of the cc deletion mutants, GBR2ccDel and V-GBR1ccDel, no GFP-positive cells were microscopically detectable (see FIG. 9, bottom bar).

## CC(/C=C/C(=O)NO)=C\[C@@H](C)C(=O)c1ccc(N(C)C)cc1 [TSA, trichostatin A]
PC12 20.4 cells
  number of surviving cells: lower number of surviving cells
[1]
  GFP-positive cells detected after transient addition of TSA: a multiplicity of GFP-positive cells were now detected
